Like-named read-outs stand apart in the source and are kept apart here. Blank lines part the entries; values can stand above or below the molecule they belong to.
What was measured:
[1] = tested on: PC9 cells; test: MTT IC50 on parental PC9 cells; format: cell-based
[2] = tested on: PC9-OSIMR cells; test: MTT IC50 on Osimertinib-resistant PC9 cells; format: cell-based
[3] = tested on: PC9luc cells; test: MTT IC50 on PC9 cells expressing a luciferase gene; format: cell-based
[4] = tested on: PC9luc-OSIMR cells; test: MTT IC50 on PC9-Osimertinib resistant cells expressing a luciferase gene; format: cell-based
[5] = target: Yap1:Oct4 interaction (Homo sapiens, UniProt P46937); test: Yap1:Oct4 interaction (in vitro binding assay); conditions: FIG. 1
Sequence of Yap1:Oct4 interaction (P46937 whole entry): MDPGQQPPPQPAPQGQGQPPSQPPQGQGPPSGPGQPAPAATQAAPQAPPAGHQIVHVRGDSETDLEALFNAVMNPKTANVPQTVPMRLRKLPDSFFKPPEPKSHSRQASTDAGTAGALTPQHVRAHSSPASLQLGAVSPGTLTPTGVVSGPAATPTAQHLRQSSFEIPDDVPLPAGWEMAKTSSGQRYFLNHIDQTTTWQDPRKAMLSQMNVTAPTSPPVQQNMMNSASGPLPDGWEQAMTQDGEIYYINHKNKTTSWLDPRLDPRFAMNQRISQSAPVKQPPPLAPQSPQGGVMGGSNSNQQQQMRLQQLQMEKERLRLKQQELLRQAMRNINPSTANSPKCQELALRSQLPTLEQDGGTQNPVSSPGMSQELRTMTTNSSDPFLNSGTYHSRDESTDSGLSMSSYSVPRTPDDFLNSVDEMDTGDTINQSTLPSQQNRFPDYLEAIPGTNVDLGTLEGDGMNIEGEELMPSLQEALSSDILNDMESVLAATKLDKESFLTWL

Structure (SMILES): C=CC(=O)Nc1cc(Nc2nccc(-c3cn(C)c4ccccc34)n2)c(OC)cc1N(C)CCN(C)C [Osimertinib, reference compound]
IC50 ([1]; Homo sapiens, PC-9, EGFR-mutant PC9 cells, read-out: IC50 for Osimertinib): 16 nM
IC50 ([1]; Homo sapiens, PC-9, PC9, read-out: IC50 MTT): 16.2 nM
IC50 ([2]; Homo sapiens, PC-9, Osimertinib-resistant PC9 cells, read-out: IC50): 5200 nM
IC50 ([2]; Homo sapiens, PC-9, PC9-OSIMR, read-out: IC50 MTT): 5250 nM
fold reduction in sensitivity ([2]; Osimertinib-resistant vs parental PC9 cells): 325 fold
IC50 ([3]; Homo sapiens, PC-9): 16.1 nM
IC50 [4]: 4930 nM

Structure (SMILES): COC(=O)[C@H](Cn1cc(-c2ccccc2)cn1)NC(=O)CC1CCN(C(=O)CCc2cccc(F)c2)CC1 [SR6-096]
IC50 [5]: 870 ± 320 nM

Structure (SMILES): COC(=O)[C@H](Cc1ccc(OCc2ccccc2)cc1)NC(=O)CC1CCN(CCCc2ccc(F)c(C#N)c2)CC1 [SR6-170]
IC50 [5]: 780 ± 150 nM

Structure (SMILES): CCOc1ccc(CCCN2CCC(CC(=O)N[C@@H](Cc3cccc(OC)c3)C(=O)OC)CC2)cc1 [SR7-042]
IC50 [5]: 1400 nM

Structure (SMILES): COC(=O)[C@H](Cc1cccc(OC)c1)NC(=O)CC1CCN(CCCc2ccc(Cl)c(Cl)c2)CC1 [SR7-045]
IC50 [5]: 1450 nM

Structure (SMILES): O=C(CC1CCN(CCCc2ccc(Cl)c(Cl)c2)CC1)Nc1ccc(OCc2ccccc2)cc1 [SR7-053]
IC50 ([1]; PC9, read-out: IC50 MTT): 1160 nM
IC50 ([2]; PC9-OSIMR, read-out: IC50 MTT): 3900 nM
IC50 [3]: 865 nM
IC50 [4]: 3350 nM
IC50 [5]: 564 nM

Structure (SMILES): COC(=O)[C@H](Cc1cccc(OC)c1)NC(=O)CC1CCN(CCC(C)(C)C)CC1 [SR7-055]
IC50 [5]: > 40000 nM

Structure (SMILES): N#Cc1ccc(CCCN2CCC(CC(=O)Nc3ccc(OCc4ccccc4)cc3)CC2)cc1 [SR7-061]
IC50 [5]: 1300 nM

Structure (SMILES): COC(=O)[C@H](Cc1ccc(OC)cc1)NC(=O)CC1CCN(CCCc2cccc(F)c2)CC1 [SR7-067]
IC50 ([1]; PC9, read-out: IC50 MTT): > 40000 nM
IC50 ([2]; PC9-OSIMR, read-out: IC50 MTT): > 40000 nM
IC50 [3]: > 40000 nM
IC50 [4]: > 40000 nM
IC50 [5]: 2560 nM

The remaining molecules from weak to strong by IC50 [5], led by results:

IC50 [5]: 1850 ± 890 nM
Structure (SMILES): COC(=O)[C@H](Cc1ccc(OCc2ccccc2)cc1)NC(=O)CC1CCN(CCCc2ccc(Cl)c(Cl)c2)CC1 [SR6-086]

IC50 [5]: 1010 ± 260 nM
Structure (SMILES): COC(=O)[C@H](Cc1ccc(OCc2ccccc2)cn1)NC(=O)CC1CCN(C(=O)CCc2ccc(Cl)c(Cl)c2)CC1 [SR6-095]

IC50 [5]: 750 ± 150 nM
Structure (SMILES): COC(=O)[C@H](Cc1ccc(OCc2ccccc2)cc1)NC(=O)CC1CCN(CCCc2cccc(F)c2)CC1 [SR6-085]

IC50 [5]: 707 nM
Structure (SMILES): O=C(CC1CCN(CCCc2cccc(F)c2)CC1)Nc1ccc(OCc2ccccc2)cc1 [SR7-057]

IC50 [5]: 510 ± 80 nM
Structure (SMILES): CCOc1ccc(CCCN2CCC(CC(=O)N[C@@H](Cc3ccc(OCc4ccccc4)cc3)C(=O)OC)CC2)cc1 [SR6-087]

IC50 ([2]; PC9-OSIMR, read-out: IC50 MTT): 5470 nM
IC50 [3]: 1270 nM
IC50 [4]: 4030 nM
IC50 [5]: 445 nM
Structure (SMILES): CCOc1ccc(CCCN2CCC(CC(=O)Nc3ccc(OCc4ccccc4)cc3)CC2)cc1 [SR7-052]
IC50 ([1]; PC9, read-out: IC50 MTT): 1230 nM

From patent US20260034115A1, “YAP1 INHIBITORS” (H. LEE MOFFITT CANCER CENTER AND RESEARCH INSTITUTE, INC., priority 2021, published 2026)
